Experimental data as given in US20240139193A1, “COMBINATION THERAPY OF KRAS INHIBITOR AND SHP2 INHIBITOR FOR TREATMENT OF CANCERS” (AMGEN INC., priority 2019, published 2024).

Key:
KRAS p.G12C models = details: preclinical KRAS p.G12C models; cited from earlier work
KRAS p.G12C tumors [1] = experiment: AMG 510 treatment in immune-competent mice; format: in vivo
KRAS p.G12C tumors [2] = experiment: Preclinical anti-tumor efficacy of AMG 510; format: in vivo

Row | SMILES | in vivo efficacy (KRAS p.G12C models) | outcome in combination with immune checkpoint inhibition (KRAS p.G12C tumors [1]) | anti-tumor efficacy of chemotherapy and targeted agents in combination (KRAS p.G12C tumors [2])
1 | C=CC(=O)N1CCN(c2ncnc3c(F)c(-c4c(O)cccc4F)c(Cl)cc23)CC1 [ARS-1620] | demonstrates in vivo efficacy | – | –
2 | C=CC(=O)N1CCN(c2nc(=O)n(-c3c(C)ccnc3C(C)C)c3nc(-c4c(O)cccc4F)c(F)cc23)[C@@H](C)C1 [Compound A, 4-((S)-4-acryloyl-2-methylpiperazin-1-yl)-6-fluoro-7-(2-fluoro-6-hydroxyphenyl)-1-(2-isopropyl-4-methylpyridin-3-yl)pyrido[2,3-d]pyrimidin-2(1H)-one] | – | durable cures | significantly improved
